Drawing on patent EP0528661A2, “HIV protease inhibitors with N-terminal polyether substituents” (MERCK & CO. INC., priority 1991, dated 1993), this text covers IC50 for one compound.

In the assay the target is T1, HIV protease (Human immunodeficiency virus type 1 group M subtype B, UniProt P12497).
T1 construct: the protease expressed in Eschericia coli; made in house; host or cells: Escherichia coli
In words: Assay for inhibition of microbial expressed viral protease (peptide substrate cleavage, HPLC quantitation). To be noted: protease expressed in Eschericia coli; peptide substrate Val-Ser-Gln-Asn-(betanapthyl)Ala-Pro-Ile-Val 0.5 mg/mL; 50 mM Na acetate, pH 5.5, 30°C, 1 hour; read-out: IC₅₀. In kind it is biochemical. As to the method: Assay for Inhibition of Microbial Expressed Viral Protease
Inhibition studies of the reaction of the protease expressed in Eschericia coli with a peptide substrate [Val-Ser-Gln-Asn-(betanapthyl)Ala-Pro-Ile-Val, 0.5 mg/mL at the time the reaction is initiated] were in 50 mM Na acetate, pH 5.5, at 30°C for 1 hour. Various concentrations of inhibitor in 1.0 ul DMAO were added to 25 ul of the peptide solution in water. The reaction is initiated by the addition of 15 ul of 0.33 nM protease (0.11 ng) in a solution of 0.133 M Na acetate pH 5.5 and 0.26% bovine serum albumin. The reaction was quenched with 160 ul of 5% phosphoric acid. Products of the reaction were separated by HPLC (VYDAC wide pore 5 cm C-18 reverse phase, acetonitrile gradient, 0.1% phosphoric acid). The extent of inhibition of the reaction was determined from the peak heights of the products.

As to `COCCOCCOCCOCCOC(=O)N[C@@H](Cc1ccccc1)[C@@H](O)C[C@@H](Cc1ccccc1)C(=O)N[C@H]1c2ccccc2C[C@H]1O` [Compound A, N-(2(R)-hydroxy-1(S)-indanyl)-5(S)-(3,6,9,12-tetraoxatridecyloxycarbonylamino)-4(S)-hydroxy-2(R)-phenylmethyl-6-phenylhexanamide], the IC50 is approximately 5 nM.
